From patent publication US11878016B2, “Methods and products for treating subjects with autism spectrum disorders” (NEURIM PHARMACEUTICALS (1991) LTD., priority 2021, dated 2024)

System: C57BL/6J mice exposed in utero to VPA (and SAL control offspring)
Experiment: Three chamber test in the valproic acid (VPA) model of autism
Format: in vivo
Source text: Furthermore, rodents prenatally exposed to this drug display behavioral phenotypes characteristics of the human autism condition. This model might better represent the many cases of idiopathic autism which are of environmental/epigenetic origins than do transgenic models carrying mutations in single autism-associated genes. The VPA model is an environmentally triggered model with strong construct and clinical validity. The VPA-induced rodent model is an art-recognized and well-established and widely utilized animal model to test putative efficacy of pharmacological agents on behavioral and social elements in the autistic spectrum for humans.
C57BL/6J mice were obtained at 7-8 weeks of age and were mated, with pregnancy confirmed by the presence of a vaginal plug on embryonic day 0 (E0). On E12.5, pregnant females received a single intraperitoneal injection of sodium salt of valproic acid (VPA, 500 mg/kg) dissolved in saline (SAL). Control females received an equal volume of SAL only. Day of birth was recorded as PO (postnatal day zero). The offspring were weaned on P21 (postnatal day 21) and the male offspring were housed in groups of 4-5. Experiments were carried out on male offspring. The mice were housed in a temperature- and humidity-controlled environment with ad libitum access to food and water. Animals were maintained on a 12 hr light/dark schedule, with lights on at 8 A.M.
The male offspring of VPA-treated mice were divided into 4 groups (n=8-9 per group): VPA-Vehicle)+50 μg of ZnSO4, VPA-ticagrelor (0.3 mg/kg)+[…] of ZnSO4, VPA-ticagrelor (10 mg/kg)+50 μg of ZnSO4 and VPA-ticagrelor (30 mg/kg)+50 μg of ZnSO4. The male offspring of SAL-treated mice were divided into 2 groups (n=10 per group): SAL-Vehicle and SAL-ticagrelor (30 mg/kg)+50 μg of ZnSO4. From the sixth week to eight week of age, the mice received three once-weekly injections of either saline (50 μl/g ip) or ticagrelor (i.p.). Twenty-four hours after the last injection, the three chamber test was performed.
The three-chamber test assesses cognition in the form of general sociability and interest in social novelty in a rodent model of CNS disorders. This test measures the sociability, the propensity to spend time with another mouse, as compared to time spent alone in an identical but empty chamber.
The apparatus was an acrylic box (length: 62 cm, width: 41 cm, height: 30.5 cm) divided into three chambers. A 5 cm×5 cm opening was made on the partitions so that mice could freely explore the three chambers. Mouse was first placed into the centre chamber of the apparatus and allowed 5 min for habituation. Following the completion of the acclimatization period the test mouse was removed to a holding cage, and the bedding material was redistributed. Then a novel mouse enclosed in a tiny cage was placed in one lateral chamber (social area) and an empty tiny cage was placed in the other lateral chamber as a novel object (non-social area). Mouse was first placed into the centre chamber and allowed to freely explore the chambers for 10 min and the time spent in each of the three areas (social, centre, and non-social areas) was recorded.
Statistical Analyses: Statistical analyses for the data were performed using one-way or two-way RM ANOVA (SigmaStat 3.1). Post-hoc comparisons were performed with the Tukey HSD method. If data were not normally distributed, Kruskal-Wallis one way ANOVA on ranks followed by the Dunn's method was used. All data were represented as mean±SEM. Significant level was set at p<0.05.

[1] = SAL (control) offspring, ticagrelor 30 mg/kg i.p. + 50 μg ZnSO4, vs SAL-Vehicle, p>0.05

`CCCSc1nc(N[C@@H]2C[C@H]2c2ccc(F)c(F)c2)c2nnn([C@@H]3C[C@H](OCCO)[C@@H](O)[C@H]3O)c2n1` [ticagrelor, (1S,2S,3R,5S)-3-[7-[[(1R,2S)-2-(3,4-difluorophenyl)cyclopropyl]amino]-5-(propylthio)-3H-1,2,3-triazolo[4,5-d]pyrimidin-3-yl]-5-(2-hydroxyethoxy)-1,2-cyclopentanediol] was tested, and the “time spent in non-social area” value [1] was “no significant difference”, the “time spent in social area” value [1] was “no significant difference” and the “time spent in social area” value (VPA offspring, ticagrelor 10 mg/kg i.p. + 50 μg ZnSO4, three once-weekly injections, test 24 h after the last, vs VPA-Vehicle, p<0.01) was “significant increase”. For the same molecule, the “time spent in non-social area” value (VPA offspring, ticagrelor 10 mg/kg i.p. + 50 μg ZnSO4, vs VPA-Vehicle, p<0.01) was “significant decrease”, the “time spent in social area” value (VPA offspring, ticagrelor 30 mg/kg i.p. + 50 μg ZnSO4, three once-weekly injections, test 24 h after the last, vs VPA-Vehicle, p<0.001) was “significant increase” and the “time spent in non-social area” value (VPA offspring, ticagrelor 30 mg/kg i.p. + 50 μg ZnSO4, vs VPA-Vehicle, p<0.01) was “significant decrease”. For the same molecule, the “time spent in centre area” value (VPA offspring, ticagrelor 30 mg/kg i.p. + 50 μg ZnSO4, vs VPA-Vehicle, p<0.05) was “significant decrease” and the deficit in sociability (three once-weekly administrations of ticagrelor and zinc salt, C57BL/6J mice exposed in utero to VPA) was “attenuated the deficit in sociability”.
